In the NIST ThermoML archive (doi:10.1021/je800246v):
± gives the expanded uncertainty stated by the source.

Experiment: activity coefficient (dimensionless); of the first substance listed, at infinite dilution; xn = mol fraction of the nth substance listed
Conditions: 101 kPa, Liquid, Chromatography, x1 = 0

| activity coefficient (315.9 K) | activity coefficient (325.3 K) | activity coefficient (334.8 K) | SMILES | activity coefficient (306.6 K) |
| --- | --- | --- | --- | --- |
| 4.7 ± 0.49 | 4.14 ± 0.44 | 3.78 ± 0.4 | CCC(O)CC [3-pentanol] + CCCCn1cc[n+](C)c1.F[P-](F)(F)(F)(F)F | – |
| 5.59 ± 0.59 | 4.77 ± 0.5 | 4.24 ± 0.45 | CCCCO [butan-1-ol] + CCCCn1cc[n+](C)c1.F[P-](F)(F)(F)(F)F | – |
| 4.29 ± 0.45 | 3.78 ± 0.4 | 3.37 ± 0.35 | CCC(C)O (stereo unspecified) [butan-2-ol] + CCCCn1cc[n+](C)c1.F[P-](F)(F)(F)(F)F | – |
| 3.02 ± 0.32 | 2.69 ± 0.28 | 2.47 ± 0.26 | CCO [ethanol] + CCCCn1cc[n+](C)c1.F[P-](F)(F)(F)(F)F | – |
| 2.16 ± 0.23 | 1.95 ± 0.2 | 1.81 ± 0.19 | CO [methanol] + CCCCn1cc[n+](C)c1.F[P-](F)(F)(F)(F)F | – |
| 9.71 ± 1 | 8.01 ± 0.84 | 6.47 ± 0.68 | CCCCCO [pentan-1-ol] + CCCCn1cc[n+](C)c1.F[P-](F)(F)(F)(F)F | – |
| 5.66 ± 0.59 | 4.99 ± 0.52 | 4.38 ± 0.46 | CCCC(C)O (stereo unspecified) [pentan-2-ol] + CCCCn1cc[n+](C)c1.F[P-](F)(F)(F)(F)F | – |
| 4.01 ± 0.42 | 3.46 ± 0.36 | 3.18 ± 0.33 | CCCO [propan-1-ol] + CCCCn1cc[n+](C)c1.F[P-](F)(F)(F)(F)F | – |
| 3.65 ± 0.38 | 3.16 ± 0.33 | 2.85 ± 0.3 | CC(C)O [propan-2-ol] + CCCCn1cc[n+](C)c1.F[P-](F)(F)(F)(F)F | – |

More lines, now with the values behind:

| SMILES | activity coefficient (315.9 K) | activity coefficient (325.3 K) | activity coefficient (334.8 K) | activity coefficient (306.6 K) |
| --- | --- | --- | --- | --- |
| Cc1ccccc1C [1,2-dimethylbenzene] + CCCCn1cc[n+](C)c1.F[P-](F)(F)(F)(F)F | 2.37 ± 0.25 | 2.21 ± 0.23 | 2.2 ± 0.23 | – |
| Cc1cccc(C)c1 [1,3-dimethylbenzene] + CCCCn1cc[n+](C)c1.F[P-](F)(F)(F)(F)F | 2.38 ± 0.25 | 2.43 ± 0.26 | 2.36 ± 0.25 | – |
| Cc1ccc(C)cc1 [1,4-dimethylbenzene] + CCCCn1cc[n+](C)c1.F[P-](F)(F)(F)(F)F | 2.27 ± 0.24 | 2.24 ± 0.24 | 2.28 ± 0.24 | – |
| CC(=O)CC(C)=O [2,4-pentanedione] + CCCCn1cc[n+](C)c1.F[P-](F)(F)(F)(F)F | 1.15 ± 0.12 | 1.07 ± 0.11 | 1.03 ± 0.1 | – |
| CC(C)CO [2-methyl-1-propanol] + CCCCn1cc[n+](C)c1.F[P-](F)(F)(F)(F)F | 5.03 ± 0.53 | 4.38 ± 0.46 | 3.84 ± 0.4 | – |
| CC(C)CCO [3-methylbutan-1-ol] + CCCCn1cc[n+](C)c1.F[P-](F)(F)(F)(F)F | 7.71 ± 0.81 | 6.34 ± 0.67 | 5.2 ± 0.55 | – |
| CC(C)=O [acetone] + CCCC[n+]1ccc(C)cc1.F[B-](F)(F)F | 1.01 ± 0.1 | 1.03 ± 0.1 | – | 0.995 ± 0.1 |
| CC(C)=O [acetone] + CCCCn1cc[n+](C)c1.F[P-](F)(F)(F)(F)F | 0.707 ± 0.074 | 0.709 ± 0.074 | 0.699 ± 0.073 | – |
| CCC(C)=O [butanone] + CCCC[n+]1ccc(C)cc1.F[B-](F)(F)F | 1.57 ± 0.16 | 1.59 ± 0.17 | – | 1.53 ± 0.16 |
| CCC(C)=O [butanone] + CCCCn1cc[n+](C)c1.F[P-](F)(F)(F)(F)F | 0.987 ± 0.1 | 0.99 ± 0.1 | 0.983 ± 0.1 | – |
| CCO [ethanol] + CCCC[n+]1ccc(C)cc1.F[B-](F)(F)F | 1.62 ± 0.17 | 1.49 ± 0.15 | – | 1.7 ± 0.18 |
| CO [methanol] + CCCC[n+]1ccc(C)cc1.F[B-](F)(F)F | 0.98 ± 0.1 | 0.907 ± 0.093 | – | 1.01 ± 0.1 |
| Cc1ccccc1 [toluene] + CCCCn1cc[n+](C)c1.F[P-](F)(F)(F)(F)F | 1.71 ± 0.18 | 1.59 ± 0.17 | 1.71 ± 0.18 | – |
